Assay results: patent publication US9995734B2, “Human T cell line assay for evaluating the immunologic identity of glatiramer acetate preparations” (Mylan Inc., priority 2013, dated 2018)
Where “and” joins values, the source holds several entries; their conditions need not be identical. Equal values may be shown once.

How the values were obtained:
Format in all cases: cell-based, human
Donor 3 COP T-Cell Lines = experiment: ATP proliferation assay (CellTiter Glo), Donor 3 COP T-cell lines, incl. reactivity to non-canonical GA peptides; conditions: for Non-Canonical Peptide Non-Reactivity: proliferation <2 times no antigen control
Donor 3 GMA T-Cell Lines = experiment: ATP proliferation assay (CellTiter Glo), Donor 3 GMA T-cell lines, incl. reactivity to non-canonical GA peptides; conditions: for Non-Canonical Peptide Non-Reactivity: proliferation <2 times no antigen control
Donor 4 COP T-Cell Lines = experiment: ATP proliferation assay (CellTiter Glo), Donor 4 COP T-cell lines, incl. reactivity to non-canonical GA peptides; conditions: for Non-Canonical Peptide Non-Reactivity: proliferation <2 times no antigen control; for Proliferation (luminescent ATP assay), Mean: T-cell line 205-1F4, Day 71, autologous B-LCL

Substance: poly (Glu-Ala-Tyr; 1:1:1) [GAT 111]
- Non-Canonical Peptide Non-Reactivity (Donor 3 COP T-Cell Lines; 165-C4C): GAT 111
- Non-Canonical Peptide Non-Reactivity (Donor 3 COP T-Cell Lines; 165-C7C): GAT 111
- proliferation response to non-canonical peptides (Donor 3 COP T-Cell Lines; 165-E3C, separate experiment): did not react
- Non-Canonical Peptide Non-Reactivity (Donor 3 COP T-Cell Lines; 165-F3C): GAT 111
- Non-Canonical Peptide Non-Reactivity (Donor 3 COP T-Cell Lines; 165-F6C): GAT 111
- Non-Canonical Peptide Non-Reactivity (Donor 3 COP T-Cell Lines; 165-U3C (so in the source)): GAT 111
- Nonreactive T-Cell Line (Donor 3 COP T-Cell Lines; Donor 3 COP lines, stimulation with the non-canonical GA peptide): 165-C4C (Donor 3) and 165-C7C (Donor 3) and 165-E3C (Donor 3) and 165-F3C (Donor 3) and 165-F6C (Donor 3)
- Proliferation (luminescent ATP assay), Mean (Donor 3 COP T-Cell Lines; T-cell line 165-C4C, 1 μg/mL antigen, Day 66 of culture, 0 μg/mL 1881): 2330
- Proliferation (luminescent ATP assay), Mean (Donor 3 COP T-Cell Lines; T-cell line 165-C4C, 3 μg/mL antigen, Day 66 of culture, 0 μg/mL 1881): 2392
- Proliferation (luminescent ATP assay), Mean (Donor 3 COP T-Cell Lines; T-cell line 165-C4C, 10 μg/mL antigen, Day 66 of culture, 0 μg/mL 1881): 2233
- Proliferation (luminescent ATP assay), Mean (Donor 3 COP T-Cell Lines; T-cell line 165-C7C, 1.25 μg/mL antigen, autologous B-LCL): 273 RLU
- Proliferation (luminescent ATP assay), Mean (Donor 3 COP T-Cell Lines; T-cell line 165-C7C, 2.5 μg/mL antigen, autologous B-LCL): 231 RLU
- Proliferation (luminescent ATP assay), Mean (Donor 3 COP T-Cell Lines; T-cell line 165-C7C, 5 μg/mL antigen, autologous B-LCL): 224 RLU
- Proliferation (luminescent ATP assay), Mean (Donor 3 COP T-Cell Lines; T-cell line 165-C7C, 10 μg/mL antigen, autologous B-LCL): 264 RLU
- Proliferation (luminescent ATP assay), Mean (Donor 3 COP T-Cell Lines; T-cell line 165-F3C, 1 μg/mL antigen, Day 77 of culture, 0 μg/mL 1563): 2387
- Proliferation (luminescent ATP assay), Mean (Donor 3 COP T-Cell Lines; T-cell line 165-F3C, 3 μg/mL antigen, Day 77 of culture, 0 μg/mL 1563): 2269
- Proliferation (luminescent ATP assay), Mean (Donor 3 COP T-Cell Lines; T-cell line 165-F3C, 10 μg/mL antigen, Day 77 of culture, 0 μg/mL 1563): 1772
- Proliferation (luminescent ATP assay), Mean (Donor 3 COP T-Cell Lines; T-cell line 165-F6C, 1.25 μg/mL antigen, Day 76 of culture, No Antigen value 517): 576
- Proliferation (luminescent ATP assay), Mean (Donor 3 COP T-Cell Lines; T-cell line 165-F6C, 2.5 μg/mL antigen, Day 76 of culture, No Antigen value 517): 620
- Proliferation (luminescent ATP assay), Mean (Donor 3 COP T-Cell Lines; T-cell line 165-F6C, 5 μg/mL antigen, Day 76 of culture, No Antigen value 517): 479
- Proliferation (luminescent ATP assay), Mean (Donor 3 COP T-Cell Lines; T-cell line 165-F6C, 10 μg/mL antigen, Day 76 of culture, No Antigen value 517): 411
- Non-Canonical Peptide Non-Reactivity (Donor 3 GMA T-Cell Lines; 165-B5G): GAT 111
- Non-Canonical Peptide Non-Reactivity (Donor 3 GMA T-Cell Lines; 165-C5G): GAT 111
- Non-Canonical Peptide Non-Reactivity (Donor 3 GMA T-Cell Lines; 165-E7G): GAT 111
- Non-Canonical Peptide Non-Reactivity (Donor 3 GMA T-Cell Lines; 165-E9G): GAT 111
- Non-Canonical Peptide Non-Reactivity (Donor 3 GMA T-Cell Lines; 165-F5G): GAT 111
- Non-Canonical Peptide Non-Reactivity (Donor 3 GMA T-Cell Lines; 165-F10G): GAT 111
- Non-Canonical Peptide Non-Reactivity (Donor 3 GMA T-Cell Lines; 165-H11G): GAT 111
- Nonreactive T-Cell Line (Donor 3 GMA T-Cell Lines; Donor 3 GMA lines, stimulation with the non-canonical GA peptide): 165-B5G (Donor 3) and 165-C5G (Donor 3) and 165-C8G (Donor 3) and 165-E7G (Donor 3) and 165-E9G (Donor 3) and 165-F5G (Donor 3) and 165-F10G (Donor 3) and 165-H11G (Donor 3)
- Proliferation (luminescent ATP assay), Mean (Donor 3 GMA T-Cell Lines; T-cell line 165-05G, 1 μg/mL antigen, Day 50 of culturing, No Antigen Value 2149): 1778 RLU
- Proliferation (luminescent ATP assay), Mean (Donor 3 GMA T-Cell Lines; T-cell line 165-05G, 3 μg/mL antigen, Day 50 of culturing, No Antigen Value 2149): 1661 RLU
- Proliferation (luminescent ATP assay), Mean (Donor 3 GMA T-Cell Lines; T-cell line 165-05G, 10 μg/mL antigen, Day 50 of culturing, No Antigen Value 2149): 1569 RLU
- Proliferation (luminescent ATP assay), Mean (Donor 3 GMA T-Cell Lines; T-cell line 165-05G, 30 μg/mL antigen, Day 50 of culturing, No Antigen Value 2149): 1449 RLU
- Proliferation (luminescent ATP assay), Mean (Donor 3 GMA T-Cell Lines; T-cell line 165-B5G, 1.25 μg/mL antigen, Day 55 of culturing, No Antigen Value 846): 1005 RLU
- Proliferation (luminescent ATP assay), Mean (Donor 3 GMA T-Cell Lines; T-cell line 165-B5G, 2.5 μg/mL antigen, Day 55 of culturing, No Antigen Value 846): 886 RLU
- Proliferation (luminescent ATP assay), Mean (Donor 3 GMA T-Cell Lines; T-cell line 165-B5G, 5 μg/mL antigen, Day 55 of culturing, No Antigen Value 846): 947 RLU
- Proliferation (luminescent ATP assay), Mean (Donor 3 GMA T-Cell Lines; T-cell line 165-B5G, 10 μg/mL antigen, Day 55 of culturing, No Antigen Value 846): 931 RLU
- Proliferation (luminescent ATP assay), Mean (Donor 3 GMA T-Cell Lines; T-cell line 165-C5G, 1.25 μg/mL antigen, autologous B-LCL): 445 RLU
- Proliferation (luminescent ATP assay), Mean (Donor 3 GMA T-Cell Lines; T-cell line 165-C5G, 2.5 μg/mL antigen, autologous B-LCL): 406 RLU
- Proliferation (luminescent ATP assay), Mean (Donor 3 GMA T-Cell Lines; T-cell line 165-C5G, 5 μg/mL antigen, autologous B-LCL): 422 RLU
- Proliferation (luminescent ATP assay), Mean (Donor 3 GMA T-Cell Lines; T-cell line 165-C5G, 10 μg/mL antigen, autologous B-LCL): 430 RLU
- Proliferation (luminescent ATP assay), Mean (Donor 3 GMA T-Cell Lines; T-cell line 165-E7G, 1.25 μg/mL antigen, autologous B-LCL, Day 55): 1896 RLU
- Proliferation (luminescent ATP assay), Mean (Donor 3 GMA T-Cell Lines; T-cell line 165-E7G, 2.5 μg/mL antigen, autologous B-LCL, Day 55): 2001 RLU
- Proliferation (luminescent ATP assay), Mean (Donor 3 GMA T-Cell Lines; T-cell line 165-E7G, 5 μg/mL antigen, autologous B-LCL, Day 55): 1285 RLU
- Proliferation (luminescent ATP assay), Mean (Donor 3 GMA T-Cell Lines; T-cell line 165-E7G, 10 μg/mL antigen, autologous B-LCL, Day 55): 2176 RLU
- Proliferation (luminescent ATP assay), Mean (Donor 3 GMA T-Cell Lines; T-cell line 165-E9G, 1 μg/mL antigen, Day 50 of culturing, No Antigen Value 1742): 1528 RLU
- Proliferation (luminescent ATP assay), Mean (Donor 3 GMA T-Cell Lines; T-cell line 165-E9G, 1.25 μg/mL antigen, autologous B-LCL): 154 RLU
- Proliferation (luminescent ATP assay), Mean (Donor 3 GMA T-Cell Lines; T-cell line 165-E9G, 2.5 μg/mL antigen, autologous B-LCL): 240 RLU
- Proliferation (luminescent ATP assay), Mean (Donor 3 GMA T-Cell Lines; T-cell line 165-E9G, 3 μg/mL antigen, Day 50 of culturing, No Antigen Value 1742): 1454 RLU
- Proliferation (luminescent ATP assay), Mean (Donor 3 GMA T-Cell Lines; T-cell line 165-E9G, 5 μg/mL antigen, autologous B-LCL): 240 RLU
- Proliferation (luminescent ATP assay), Mean (Donor 3 GMA T-Cell Lines; T-cell line 165-E9G, 10 μg/mL antigen, autologous B-LCL): 153 RLU
- Proliferation (luminescent ATP assay), Mean (Donor 3 GMA T-Cell Lines; T-cell line 165-E9G, 30 μg/mL antigen, Day 50 of culturing, No Antigen Value 1742): 1301 RLU
- Proliferation (luminescent ATP assay), Mean (Donor 3 GMA T-Cell Lines; T-cell line 165-E9G, 10 μpg/mL antigen, Day 50 of culturing, No Antigen Value 1742): 1462 RLU
- Proliferation (luminescent ATP assay), Mean (Donor 3 GMA T-Cell Lines; T-cell line 165-F5G, 1.25 μg/mL antigen, autologous B-LCL): 139 RLU
- Proliferation (luminescent ATP assay), Mean (Donor 3 GMA T-Cell Lines; T-cell line 165-F5G, 2.5 μg/mL antigen, autologous B-LCL): 121 RLU
- Proliferation (luminescent ATP assay), Mean (Donor 3 GMA T-Cell Lines; T-cell line 165-F5G, 5 μg/mL antigen, autologous B-LCL): 142 RLU
- Proliferation (luminescent ATP assay), Mean (Donor 3 GMA T-Cell Lines; T-cell line 165-F5G, 10 μg/mL antigen, autologous B-LCL): 122 RLU
- Proliferation (luminescent ATP assay), Mean (Donor 3 GMA T-Cell Lines; T-cell line 165-F10G, 1 μg/mL antigen, Day 50 of culturing, No Antigen Value 3752): 3575 RLU
- Proliferation (luminescent ATP assay), Mean (Donor 3 GMA T-Cell Lines; T-cell line 165-F10G, 1.25 μg/mL antigen, autologous B-LCL): 929 RLU
- Proliferation (luminescent ATP assay), Mean (Donor 3 GMA T-Cell Lines; T-cell line 165-F10G, 2.5 μg/mL antigen, autologous B-LCL): 1342 RLU
- Proliferation (luminescent ATP assay), Mean (Donor 3 GMA T-Cell Lines; T-cell line 165-F10G, 3 μg/mL antigen, Day 50 of culturing, No Antigen Value 3752): 2989 RLU
- Proliferation (luminescent ATP assay), Mean (Donor 3 GMA T-Cell Lines; T-cell line 165-F10G, 5 μg/mL antigen, autologous B-LCL): 1091 RLU
- Proliferation (luminescent ATP assay), Mean (Donor 3 GMA T-Cell Lines; T-cell line 165-F10G, 10 μg/mL antigen, Day 50 of culturing, No Antigen Value 3752): 2876 RLU
- Proliferation (luminescent ATP assay), Mean (Donor 3 GMA T-Cell Lines; T-cell line 165-F10G, 10 μg/mL antigen, autologous B-LCL): 1054 RLU
- Proliferation (luminescent ATP assay), Mean (Donor 3 GMA T-Cell Lines; T-cell line 165-F10G, 30 μg/mL antigen, Day 50 of culturing, No Antigen Value 3752): 2299 RLU
- Proliferation (luminescent ATP assay), Mean (Donor 3 GMA T-Cell Lines; T-cell line 165-H11G, 1 μg/mL antigen, Day 50 of culturing, No Antigen Value 1485): 2448 RLU
- Proliferation (luminescent ATP assay), Mean (Donor 3 GMA T-Cell Lines; T-cell line 165-H11G, 1.25 μg/mL antigen, autologous B-LCL): 49 RLU
- Proliferation (luminescent ATP assay), Mean (Donor 3 GMA T-Cell Lines; T-cell line 165-H11G, 2.5 μg/mL antigen, autologous B-LCL): 320 RLU
- Proliferation (luminescent ATP assay), Mean (Donor 3 GMA T-Cell Lines; T-cell line 165-H11G, 3 μg/mL antigen, Day 50 of culturing, No Antigen Value 1485): 2294 RLU
- Proliferation (luminescent ATP assay), Mean (Donor 3 GMA T-Cell Lines; T-cell line 165-H11G, 5 μg/mL antigen, autologous B-LCL): 304 RLU
- Proliferation (luminescent ATP assay), Mean (Donor 3 GMA T-Cell Lines; T-cell line 165-H11G, 10 μg/mL antigen, Day 50 of culturing, No Antigen Value 1485): 2102 RLU
- Proliferation (luminescent ATP assay), Mean (Donor 3 GMA T-Cell Lines; T-cell line 165-H11G, 10 μg/mL antigen, autologous B-LCL): 336 RLU
- Proliferation (luminescent ATP assay), Mean (Donor 3 GMA T-Cell Lines; T-cell line 165-H11G, 30 μg/mL antigen, Day 50 of culturing, No Antigen Value 1485): 1599 RLU
- Non-Canonical Peptide Non-Reactivity (Donor 4 COP T-Cell Lines; 205-1F4): GAT 111
- Non-Canonical Peptide Non-Reactivity (Donor 4 COP T-Cell Lines; 205-1H3): GAT 111
- reactivity to non-canonical GA peptides (Donor 4 COP T-Cell Lines; 205-1H7, after seven stimulations, 0, 1, 10, 30 μg/mL): not
- Non-Canonical Peptide Non-Reactivity (Donor 4 COP T-Cell Lines; 205-1H7): GAT 111
- Non-Canonical Peptide Non-Reactivity (Donor 4 COP T-Cell Lines; 205-1H11): GAT 111
- Nonreactive T-Cell Line (Donor 4 COP T-Cell Lines; Donor 4 COP lines, stimulation with the non-canonical GA peptide): 205-1F4 (Donor 4) and 205-1H3 (Donor 4) and 205-1H7 (Donor 4) and 205-1H11 (Donor 4)
- Proliferation (luminescent ATP assay), Mean (Donor 4 COP T-Cell Lines; 1 μg/mL antigen): 2002
- Proliferation (luminescent ATP assay), Mean (Donor 4 COP T-Cell Lines; 3 μg/mL antigen): 2163
- Proliferation (luminescent ATP assay), Mean (Donor 4 COP T-Cell Lines; 10 μg/mL antigen): 2275
